Reference: patent US20160185797A1, “ALKYNYL ALCOHOLS AND METHODS OF USE” (Genentech, Inc., priority 2013, published 2016)

Each compound was assayed against T1, nuclear factor-kappa B (NF-kB)-inducing kinase (NIK) (Homo sapiens, UniProt Q99558) (assay: NIK enzyme inhibition assay (Transcreener ADP fluorescence polarization, NIK ADP-FP)).
T1 construct: made in house; host or cells: baculovirus-infected insect cells
Assay type: biochemical

T1 sequence (Q99558 whole entry): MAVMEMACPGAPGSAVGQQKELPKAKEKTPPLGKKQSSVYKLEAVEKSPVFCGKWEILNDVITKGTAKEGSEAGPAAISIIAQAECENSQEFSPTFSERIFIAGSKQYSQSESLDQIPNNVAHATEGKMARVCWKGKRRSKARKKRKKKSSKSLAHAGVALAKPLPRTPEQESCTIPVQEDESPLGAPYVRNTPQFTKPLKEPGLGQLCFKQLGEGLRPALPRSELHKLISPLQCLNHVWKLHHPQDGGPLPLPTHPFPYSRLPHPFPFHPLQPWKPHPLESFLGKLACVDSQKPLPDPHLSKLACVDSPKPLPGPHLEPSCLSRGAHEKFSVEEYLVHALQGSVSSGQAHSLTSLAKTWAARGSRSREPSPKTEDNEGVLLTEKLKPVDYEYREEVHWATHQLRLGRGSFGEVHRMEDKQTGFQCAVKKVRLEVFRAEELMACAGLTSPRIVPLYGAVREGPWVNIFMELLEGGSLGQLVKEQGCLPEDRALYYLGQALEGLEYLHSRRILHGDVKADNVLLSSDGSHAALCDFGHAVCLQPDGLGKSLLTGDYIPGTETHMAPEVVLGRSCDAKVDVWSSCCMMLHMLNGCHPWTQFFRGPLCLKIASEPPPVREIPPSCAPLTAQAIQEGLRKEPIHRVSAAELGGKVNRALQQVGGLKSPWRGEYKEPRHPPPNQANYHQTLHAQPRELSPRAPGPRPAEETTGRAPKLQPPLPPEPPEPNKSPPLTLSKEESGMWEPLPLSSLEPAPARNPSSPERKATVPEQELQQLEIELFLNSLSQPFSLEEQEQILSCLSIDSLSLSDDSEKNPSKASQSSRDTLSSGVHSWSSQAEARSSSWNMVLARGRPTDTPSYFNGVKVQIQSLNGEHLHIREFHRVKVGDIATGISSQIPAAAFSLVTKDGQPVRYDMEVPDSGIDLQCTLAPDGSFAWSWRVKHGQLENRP

SMILES	Ki
CN1CC[C@@](O)(C#Cc2cccc(-c3cc(OCC(F)(F)F)cc(C(N)=O)n3)c2)C1=O [Example 189, 6-[3-[2-[(3R)-3-hydroxy-1-methyl-2-oxo-pyrrolidin-3-yl]ethynyl]phenyl]-4(2,2,2-trifluoroethoxy)pyridine-2-carboxamide]	0.15 nM
CN1CC[C@@](O)(C#Cc2cc(-c3nccc(C(N)=O)n3)c3cn[nH]c3c2)C1=O [Example 156, 2-[6-[2-[(3R)-3-hydroxy-1-methyl-2-oxo-pyrrolidin-3-yl]ethynyl]-1H-indazol-4-yl] pyrimidine-4-carboxamide]	11.3 nM
COc1cc(C(N)=O)nc(-c2cc(C#C[C@]3(O)CCN(C)C3=O)ccc2F)c1 [Example 179, 6-[2-fluoro-5-[2-[(3R)-3-hydroxy-l-methyl-2-oxo-pyrrolidin-3-yl]ethynyl]phenyl]-4-methoxy-pyridine-2-carboxamide]	< 0.05 nM
NC(=O)c1nc(-c2cccc(C#C[C@@]3(O)CCOC3=O)c2)ccc1N (single isomer, unassigned) [Example 65]	38 nM
CN1CC[C@@](O)(C#Cc2cc(-c3nc(C(N)=O)cc4c3cnn4C)ccc2F)C1=O [Example 177, 4-[4-fluoro-3-[2-[(3R)-3-hydroxy-l-methyl-2-oxo-pyrrolidin-3-yl]ethynyl]phenyl]-1-methyl-pyrazolo [4,3-c]pyridine-6-carboxamide]	< 0.05 nM
CN1CC[C@@](O)(C#Cc2cccc(-c3nc(C(N)=O)cc4nccn34)c2)C1=O [Example 61, 5-[3-[2-[(3R)-3-hydroxy-1-methyl-2-oxo-pyrrolidin-3-yl]ethynyl]phenyl]imidazo [1,2-c]pyrimidine-7-carboxamide]	4.33 nM
CN1CC[C@@](O)(C#Cc2cccc(-c3nc(C(N)=O)cc(N4CC[C@@H](O)C4)n3)c2)C1=O [Example 24, 2-[3-[2-[(3R)-3-hydroxy-1-methyl-2-oxo-pyrrolidin-3-yl]ethynyl]phenyl]-6-[(3R)-3-hydroxypyrrolidin-1-yl] pyrimidine-4-carboxamide]	1.05 nM
CN1CC[C@@](O)(C#Cc2cc3c(c(-c4nccc(C(N)=O)n4)c2)CCN3)C1=O [Example 184, 2-[6-[2-[(3R)-3-hydroxy-1-methyl-2-oxo-pyrrolidin-3-yl]ethynyl]indolin-4-yl] pyrimidine-4-carboxamide]	0.14 nM
CN1CC[C@@](O)(C#Cc2cccc(-c3nc(C(N)=O)cc4c3OCC4)c2)C1=O [Example 186, 7-[3-[2-[(3R)-3-hydroxy-1-methyl-2-oxo-pyrrolidin-3-yl]ethynyl]phenyl]-2,3-dihydrofuro[1,3-c]pyridine-5-carboxamide]	0.14 nM
CC(C)C[C@H]1CCCN1c1cc(C(N)=O)nc(-c2cccc(C#C[C@]3(O)CCN(C)C3=O)c2)n1 [Example 25, 2-[3-[2-[(3R)-3-hydroxy-1-methyl-2-oxo-pyrrolidin-3-yl]ethynyl]phenyl]-6-[(2R)-2-isobutylpyrrolidin-1-yl] pyrimidine-4-carboxamide]	5.57 nM
NC(=O)c1nc(-c2cccc(C#C[C@]3(O)CCOC3=O)c2)ccc1N (single isomer, unassigned) [Example 64]	4.07 nM
Cc1cnc([C@@](C)(O)C#Cc2cccc(-c3nc(C(N)=O)c4ccn(C)c4n3)c2)o1 [Example 54, 2-[3-[(3S)-3-hydroxy-3-(5-methyloxazol-2-yl)but-1-ynyl]phenyl]-7-methyl-pyrrolo[2,3-d] pyrimidine-4-carboxamide]	510 nM
CN1CC[C@@](O)(C#Cc2cccc(-c3ncc(N4CCOCC4)c(C(N)=O)n3)c2)C1=O [Example 103, 2-[3-[2-[(3R)-3-hydroxy-1-methyl-2-oxo-pyrrolidin-3-yl]ethynyl]phenyl]-5-morpholino-pyrimidine-4-carboxamide]	22.8 nM
CN1CC[C@@](O)(C#Cc2cccc(-c3nc(C(N)=O)c4cnn(C5CC5)c4n3)c2)C1=O [Example 193, 1-cyclopropyl-6-[3-[2-[(3R)-3-hydroxy-1-methyl-2-oxo-pyrrolidin-3-yl]ethynyl]phenyl]pyrazolo[3,4-d] pyrimidine-4-carboxamide]	< 0.1 nM
CN1CC[C@@](O)(C#Cc2cccc(-c3nc(C(N)=O)ccc3C(F)F)c2)C1=O [Example 188, 5-(difluoromethyl)-6-[3[2-[(3R)-3-hydroxy-1-methyl-2-oxo-pyrrolidin-3-yl]ethynyl]phenyl]pyridine-2-carboxamide]	9.53 nM
CN1CCC(O)(C#Cc2cccc(-c3nc(C(N)=O)ncc3NCC(F)(F)F)c2)C1=O (stereo in doubt) [Example 147, 4-[3-[2-[(3R)-3-hydroxy-1-methyl-2-oxo-pyrrolidin-3-yl]ethynyl]phenyl]-5-(2,2,2-trifluoroethylamino) pyrimidine-2-carboxamide]	879 nM
CC(=O)N1CCN(c2cc(C(N)=O)nc(-c3cccc(C#C[C@]4(O)CCN(C)C4=O)c3)n2)CC1 [Example 7, 6-(4-acetylpiperazin-1-yl)-2-[3-[2-[(3R)-3-hydroxy-1-methyl-2-oxo-pyrrolidin-3-yl]ethynyl]phenyl]pyrimidine-4-carboxamide]	1.25 nM
COc1cc(C(N)=O)nc(-c2ccc(F)c(C#C[C@]3(O)CCN(C)C3=O)c2)c1 [Example 180, 6-[4-fluoro-3-[2-[(3R)-3-hydroxy-1-methyl-2-oxo-pyrrolidin-3-yl]ethynyl]phenyl]-4-methoxy-pyridine-2-carboxamide]	< 0.05 nM
COc1cc(C(N)=O)nc(-c2cc(C#C[C@]3(O)CCN(C)C3=O)c(F)cc2F)c1 [Example 191, 6[2,4-difluoro-5-[2-[(3R)-3-hydroxy-l-methy1-2-oxo-pyrrolidin-3-yl]ethynyl]phenyl]-4-methoxy-pyridine-2-carboxamide]	< 0.05 nM
CN1CC[C@@](O)(C#Cc2cccc(-c3nccc(C(N)=O)n3)c2F)C1=O [Example 91, 2-[2-fluoro-3-[2-[(3R)-3-hydroxy-1-methyl-2-oxo-pyrrolidin-3-yl]ethynyl]phenyl]pyrimidine-4-carboxamide]	14.4 nM
CN1CC[C@@](O)(C#Cc2cccc(-c3nc(N[C@H]4CCOC4)cc(C(N)=O)n3)c2)C1=O (single isomer, unassigned) [Example 30]	23.2 nM
CN1CC[C@@](O)(C#Cc2cccc(-c3cc(-n4cc(F)cn4)cc(C(N)=O)n3)c2)C1=O [Example 190, 4-(4-fluoropyrazol-1-yl)-6-[3-[2-[(3R)-3-hydroxy-1-methyl-2-oxo-pyrrolidin-3-yl]ethynyl]phenyl]pyridine-2-carboxamide]	< 0.05 nM

The remaining lines, values ahead:

Ki	SMILES
23.8 nM	Cc1ccc(C(N)=O)nc1-c1cccc(C#C[C@]2(O)CCN(C)C2=O)c1 [Example 140, 6-[3-[2-[(3R)-3-hydroxy-1-methyl-2-oxo-pyrrolidin-3-yl]ethynyl]phenyl]-5-methyl-pyridine-2-carboxamide]
1.86 nM	CN1CC[C@@](O)(C#Cc2cccc(-c3ccc(F)c(C(N)=O)n3)c2)C1=O [Example 157, 3-fluoro-6-[3-[2-[(3R)-3-hydroxy-l-methyl-2-oxo-pyrrolidin-3-yl]ethynyl]phenyl] pyridine-2-carboxamide]
0.5 nM	COCc1cc(C(N)=O)nc(-c2cccc(C#C[C@]3(O)CCN(C)C3=O)c2)c1 [Example 198, 6-[3-[2-[(3R)-3-hydroxy-1-methyl-2-oxo-pyrrolidin-3-yl]ethynyl]phenyl]-4-(methoxymethyl)pyridine-2-carboxamide]
0.06 nM	CN1CC[C@@](O)(C#Cc2cccc(-c3ccc(C(F)F)c(C(N)=O)n3)c2)C1=O [Example 187, 3-(difluoromethyl)-6-[3-[2-[(3R)-3-hydroxy-1-methyl-2-oxo-pyrrolidin-3-yl]ethynyl]phenyl]pyridine-2-carboxamide]
0.5 nM	COc1cc(C(N)=O)nc(-c2cccc(C#C[C@]3(O)CCN(C)C3=O)c2)c1F [Example 185, 5-fluoro-6-[3-[2-[(3R)-3-hydroxy-1-methyl-2-oxo-pyrrolidin-3-yl]ethynyl]phenyl]-4-methoxy-pyridine-2-carboxamide]
0.4 nM	CCOc1cc(C(N)=O)nc(-c2cccc(C#C[C@]3(O)CCN(C)C3=O)c2)c1 [Example 199]
< 0.05 nM	Cc1cc(-c2cccc(C#C[C@]3(O)CCN(C)C3=O)c2)nc(C(N)=O)c1O [Example 195, 3-hydroxy-6-[3-[2-[(3R)-3-hydroxy-1-methyl-2-oxo-pyrrolidin-3-yl]ethynyl]phenyl]-4-methyl-pyridine-2-carboxamide]
0.4 nM	CN1CC[C@@](O)(C#Cc2cccc(-c3nc(C(N)=O)c4c(n3)N(C)CC4)c2)C1=O [Example 192, 2-[3-[2-[(3R)-3-hydroxy-1-methyl-2-oxo-pyrrolidin-3-yl]ethynyl]phenyl]-7-methyl-5,6-dihydropyrrolo[2,3-d] pyrimidine-4-carboxamide]
2.87 nM	Cc1c(O)cc(-c2cccc(C#C[C@]3(O)CCN(C)C3=O)c2)nc1C(N)=O [Example 178, 4-hydroxy-6-[3-[2-[(3R)-3-hydroxy-1-methyl-2-oxo-pyrrolidin-3-yl]ethynyl]phenyl]-3-methyl-pyridine-2-carboxamide]
0.49 nM	COCc1cc(-c2cccc(C#C[C@]3(O)CCN(C)C3=O)c2)nc(C(N)=O)n1 [Example 183, 4-[3-[2-[(3R)-3-hydroxy-l-methyl-2-oxo-pyrrolidin-3-yl]ethynyl]phenyl]-6-(methoxymethyl)pyrimidine-2-carboxamide]
0.96 nM	CN1CC[C@@](O)(C#Cc2cccc(-c3cc(O)cc(C(N)=O)n3)c2)C1=O [Example 176, 4-hydroxy-6-[3-[2-[(3R)-3-hydroxy-1-methyl-2-oxo-pyrrolidin-3-yl]ethynyl]phenyl] pyridine-2-carboxamide]
0.08 nM	CC(=O)Nc1cc(C(N)=O)nc(-c2cccc(C#C[C@]3(O)CCN(C)C3=O)c2)c1 [Example 175, 4-acetamido-6-[3-[2-[(3R)-3-hydroxy-1-methyl-2-oxo-pyrrolidin-3-yl]ethynyl]phenyl] pyridine-2-carboxamide]
3.67 nM	COc1cc(-c2cccc(C#C[C@]3(O)CCN(C)C3=O)c2)nc(C(N)=O)c1OC [Example 181, 6-[3-[2-[(3R)-3-hydroxy-l-methyl-2-oxo-pyrrolidin-3-yl]ethynyl]phenyl]-3,4-dimethoxy-pyridine-2-carboxamide]
